Here are results for 42 molecules from ChEMBL document CHEMBL1201862, “PubChem BioAssay data set” (2004).

Where “and” joins values, the source holds several entries; their conditions need not be identical. Equal entries are not always repeated. Calls of active or inactive are those of the source. A value given as a limit tells only on which side of the number the result lay.

Assay [1] relates to Streptococcus sp. 'group A'. Put plainly: Streptococcus pyogenes SK(-)GAS viability under kanamycin – luminescence, BacTiterGlo, confirmation, counter-screen for streptokinase expression inhibitor project, dose response (AID 1900). The assay is classed as functional, organism-based.
In assay [2] the target is T1, Streptokinase A (Streptococcus pyogenes serotype M1, UniProt P10520).
T1 sequence (P10520 whole entry): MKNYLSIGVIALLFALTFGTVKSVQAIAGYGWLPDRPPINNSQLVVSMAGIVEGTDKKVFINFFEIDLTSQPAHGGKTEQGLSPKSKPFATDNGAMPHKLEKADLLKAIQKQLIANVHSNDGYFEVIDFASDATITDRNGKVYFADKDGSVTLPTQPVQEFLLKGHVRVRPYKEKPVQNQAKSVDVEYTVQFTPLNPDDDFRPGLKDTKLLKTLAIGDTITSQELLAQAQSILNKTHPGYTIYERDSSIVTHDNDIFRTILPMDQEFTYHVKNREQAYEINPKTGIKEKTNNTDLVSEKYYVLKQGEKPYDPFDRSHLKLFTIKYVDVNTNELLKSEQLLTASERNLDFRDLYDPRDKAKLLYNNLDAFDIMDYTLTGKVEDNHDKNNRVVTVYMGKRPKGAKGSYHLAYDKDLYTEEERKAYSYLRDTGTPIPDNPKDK
The assay can be described thus: viability-normalized secreted streptokinase activity reduction – plasminogen activation absorbance, OD405, dose response (AID 1914).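 Further: secreted streptokinase activity via plasminogen activation per viability signal from cell pellet.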 The assay is classed as functional, Streptococcus pyogenes M1 GAS.

Assay [3] has as its system Streptococcus. Put plainly: GAS UMAA2166 growth inhibition – luminescence, BacTiterGlo, counter-screen for streptokinase expression inhibitor project, dose response (AID 1915).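 Further: potency for reduction of bacterial viability or growth.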 The assay is classed as functional, organism-based.
Assay [4] has as its target Luciferin 4-monooxygenase (Photinus pyralis, UniProt P08659). Put plainly: inhibition of purified Photinus pyralis luciferase – biochemical, luminescence, dose response (AID 1891).
The nature of assay [5]: Luminescence Cell-Based Dose Confirmation HTS to Identify Inhibitors of Platelet Dense Granule Release. [Related pubchem assays: 1663 (Primary HTS), 1678 (Summary of Project)]. The assay is classed as functional.
Assay [6] concerns the target Cytochrome P450 2C19 (Homo sapiens, UniProt P33261). The assay can be described thus: Cytochrome panel assay with activity outcomes. Panel member name: p450-cyp2c19 Compounds with AC50 equal or less than 10 uM are considered active. The assay is classed as functional. The conditions noted are these: read-out: AC50.
The target of assay [7] is Cytochrome P450 2D6 (Homo sapiens, UniProt P10635).
The target in assay [8] is T2, Cytochrome P450 1A2 (Homo sapiens, UniProt P05177).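 Further: PubChem cytochrome P450 panel assay, CYP1A2 panel member.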
T2 sequence (P05177 whole entry): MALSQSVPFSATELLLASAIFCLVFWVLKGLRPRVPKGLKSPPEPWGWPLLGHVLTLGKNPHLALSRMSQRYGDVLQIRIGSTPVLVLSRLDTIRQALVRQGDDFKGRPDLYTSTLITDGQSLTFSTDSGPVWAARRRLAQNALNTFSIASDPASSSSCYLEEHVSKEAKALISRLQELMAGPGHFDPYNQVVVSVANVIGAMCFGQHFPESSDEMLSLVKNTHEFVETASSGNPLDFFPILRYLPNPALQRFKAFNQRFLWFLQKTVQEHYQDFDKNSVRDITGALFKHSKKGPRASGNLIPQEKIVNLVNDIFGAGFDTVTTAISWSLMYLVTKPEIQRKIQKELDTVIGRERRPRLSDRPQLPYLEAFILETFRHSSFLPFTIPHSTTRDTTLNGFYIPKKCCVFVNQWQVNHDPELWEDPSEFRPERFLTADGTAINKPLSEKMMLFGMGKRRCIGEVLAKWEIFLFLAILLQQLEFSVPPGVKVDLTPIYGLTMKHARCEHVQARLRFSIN

Assay [9] can be described thus: Luminescence Cell-Based Dose Retest to Confirm Inhibitors of Cancer Stem Cells. [Related pubchem assays (depositor defined):AID2717, AID2721]. The assay is classed as functional. Particulars: Homo sapiens.
Assay [10] is described as follows: viability of PTEN-deleted HCT116 cells – cell-based, HCT116 PTEN knockout, dose response (AID 1047).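 Further: HCT116 colon tumor cells with PTEN knocked out; cells exposed to compound for 60 hours before readout; potency for loss of cell viability measured by luminescence.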 The assay is classed as functional.
Assay [11] is described as follows: viability of HCT116 lacking mutant beta-catenin – cell-based, human colon tumor, dose response (AID 1045).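 Further: HCT116 colon tumor cells with beta catenin knocked out; cells exposed to compound for 60 hours.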 The assay is classed as functional.
For assay [12], the target named is Cytochrome P450 3A4 (Homo sapiens, UniProt P08684).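 Further: CYP3A4 tested as one member of a cytochrome P450 panel screen.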
Assay [13] deals with INS1. The assay can be described thus: INS-1E survival protection against cytokine death – cell-based, luminescence, retest, dose response (AID 449756).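 Further: cell death triggered by IL-1 beta plus TNF-alpha plus IFN-gamma mixture; protective hits raise ATP signal compared with cytokine alone wells.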 The assay is classed as functional. The conditions noted are these: Rattus norvegicus.
A short description of assay [14]: Trypanosoma cruzi growth suppression in host cells – NIH3T3 host cells, beta-gal luminescence, confirmation (AID 2044).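 Further: intracellular parasites grown in NIH/3T3 mouse fibroblasts as host cells; luminescent beta-galactosidase reporter signal from transgenic T. cruzi replicating inside host cells; inhibitors lower the luminescence signal.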 The assay is classed as functional, cell-based.
The nature of assay [15]: NIH3T3 cell viability loss – ATP luminescence, mouse fibroblasts, counter-screen, dose response (AID 2010).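 Further: cells exposed to compound for about 90 hours before reading.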 The assay is classed as functional, cell-based.

Chain of Cytochrome P450 3A4 (P08684 whole entry): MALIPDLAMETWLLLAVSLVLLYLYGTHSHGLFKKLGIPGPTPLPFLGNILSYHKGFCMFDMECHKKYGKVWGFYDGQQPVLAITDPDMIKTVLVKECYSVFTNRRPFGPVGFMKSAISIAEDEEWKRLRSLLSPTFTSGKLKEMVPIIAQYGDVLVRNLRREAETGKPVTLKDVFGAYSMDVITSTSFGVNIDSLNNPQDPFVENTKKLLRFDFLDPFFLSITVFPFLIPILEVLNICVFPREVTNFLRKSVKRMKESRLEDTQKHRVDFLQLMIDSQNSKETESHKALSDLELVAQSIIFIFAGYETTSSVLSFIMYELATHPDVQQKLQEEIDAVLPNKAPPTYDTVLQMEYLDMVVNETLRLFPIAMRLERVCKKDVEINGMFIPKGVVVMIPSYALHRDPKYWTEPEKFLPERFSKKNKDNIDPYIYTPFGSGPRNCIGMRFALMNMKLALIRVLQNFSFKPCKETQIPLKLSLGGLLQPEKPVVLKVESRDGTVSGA
Chain of Cytochrome P450 2D6 (P10635 whole entry): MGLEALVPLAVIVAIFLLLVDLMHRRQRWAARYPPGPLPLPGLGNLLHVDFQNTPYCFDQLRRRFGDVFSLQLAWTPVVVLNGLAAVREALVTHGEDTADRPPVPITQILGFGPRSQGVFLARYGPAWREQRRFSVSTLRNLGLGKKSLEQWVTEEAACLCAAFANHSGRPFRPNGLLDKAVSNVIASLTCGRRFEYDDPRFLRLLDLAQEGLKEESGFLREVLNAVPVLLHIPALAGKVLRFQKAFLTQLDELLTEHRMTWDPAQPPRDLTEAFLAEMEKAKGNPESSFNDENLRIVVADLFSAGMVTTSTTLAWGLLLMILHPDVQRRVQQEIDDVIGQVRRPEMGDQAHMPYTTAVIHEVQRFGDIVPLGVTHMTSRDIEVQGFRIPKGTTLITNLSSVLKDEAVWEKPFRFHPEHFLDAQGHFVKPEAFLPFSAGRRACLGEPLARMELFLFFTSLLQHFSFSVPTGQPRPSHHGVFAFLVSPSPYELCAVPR
Chain of Cytochrome P450 2C19 (P33261 whole entry): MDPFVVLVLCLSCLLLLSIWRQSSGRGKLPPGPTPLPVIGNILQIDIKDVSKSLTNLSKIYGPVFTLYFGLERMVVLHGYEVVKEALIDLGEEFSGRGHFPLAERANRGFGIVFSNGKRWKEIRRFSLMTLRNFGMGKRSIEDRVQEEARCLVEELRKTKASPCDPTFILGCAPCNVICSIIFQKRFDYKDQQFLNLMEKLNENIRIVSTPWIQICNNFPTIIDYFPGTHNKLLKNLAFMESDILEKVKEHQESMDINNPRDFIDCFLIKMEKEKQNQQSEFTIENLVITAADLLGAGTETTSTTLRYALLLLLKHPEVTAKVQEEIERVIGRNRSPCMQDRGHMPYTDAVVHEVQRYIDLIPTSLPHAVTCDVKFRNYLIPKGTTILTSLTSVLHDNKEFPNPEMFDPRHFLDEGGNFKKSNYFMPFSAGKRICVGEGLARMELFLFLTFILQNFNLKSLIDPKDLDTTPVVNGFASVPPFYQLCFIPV
Chain of Luciferin 4-monooxygenase (P08659 whole entry): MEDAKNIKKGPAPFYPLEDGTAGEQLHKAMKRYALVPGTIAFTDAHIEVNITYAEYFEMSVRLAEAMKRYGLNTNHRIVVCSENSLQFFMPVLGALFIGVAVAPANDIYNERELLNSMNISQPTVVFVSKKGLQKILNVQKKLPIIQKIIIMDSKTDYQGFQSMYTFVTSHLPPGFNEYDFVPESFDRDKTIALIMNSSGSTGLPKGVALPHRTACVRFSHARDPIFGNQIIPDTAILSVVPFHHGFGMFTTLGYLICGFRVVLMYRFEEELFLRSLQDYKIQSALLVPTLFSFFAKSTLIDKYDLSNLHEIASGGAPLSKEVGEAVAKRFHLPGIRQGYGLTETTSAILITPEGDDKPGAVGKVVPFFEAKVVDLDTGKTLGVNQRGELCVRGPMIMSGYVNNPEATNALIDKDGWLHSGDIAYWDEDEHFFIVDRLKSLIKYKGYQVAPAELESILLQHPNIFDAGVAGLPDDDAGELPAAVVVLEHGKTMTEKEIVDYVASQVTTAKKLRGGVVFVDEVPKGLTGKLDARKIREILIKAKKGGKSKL

As to `CCCc1cc2c(-c3ccccc3)cc(=O)oc2cc1OCc1ccc(C(=O)O)o1`, the results for the EC50 in [1], in assay [2] and in [3] were 8.37 µM (active), 13.8 µM (active) and > 150 µM (not active), respectively.
The corresponding values for `Nc1c(C(=O)OCc2ccccc2)c2nc3ccccc3nc2n1Cc1cccs1` are 10.9 µM (active), 18.5 µM (active) and 11.8 µM (active).
Regarding `Cc1ccccc1SCC(=O)OCC(=O)N(C)c1c(N)n(Cc2ccccc2)c(=O)[nH]c1=O`, the concentration for a half-maximal effect (EC50) in [4] and in [5] was > 112 µM (not active) in each case.
Take `CC(Oc1cccc(Cl)c1)C(=O)Nc1ccccc1N1CCCC1` (stereo unspecified): the EC50 in [4] and in assay [5] was > 112 µM (not active) in each case.
As for `COc1ccc(S(=O)(=O)N/N=C(/C)c2cccc(NC(=O)c3ccccc3Cl)c2)cc1`, the figures for the AC50 in [6], in [7] and in [8] were 0.398 µM (inconclusive), 28.2 µM (inconclusive) and 14.1 µM (inconclusive), respectively.
As to `Cc1ccc(Nc2cc(C)nn2-c2nc(C)cc(C)n2)cc1`, the EC50 in [1] was 6.89 µM (active); in assay [2] it was > 150 µM (not active); in assay [3], 18.2 µM (active).
For `Cc1cccc(NC(=O)c2[nH]cnc2C(=O)NC2CCN(C(=O)OC(C)(C)C)CC2)c1`, in assay [9], the AC50 is 5.39 µM (active).
Take `CCN(CC)CCNC(=O)c1cc(S(C)(=O)=O)ccc1OC` [TIAPRIDE]: in assay [7], the AC50 is 7.94 µM (inconclusive) and 31.6 µM (inconclusive).
As for `CC(C)OCCCN1CN(S(=O)(=O)c2cccs2)c2nc3ccccc3nc21`, the EC50 in assay [4] and in assay [5] was > 112 µM (not active) each time.
On to `CC(C)NC(=O)N1CC2(CCN(C(=O)c3ccco3)CC2)C1`, for which the AC50 in assay [7] is 12.6 µM (inconclusive).
Regarding `CCCCCCSc1ccc([C@H]2N[C@@](C)(C(=O)OC)[C@H]3C(=O)N(CC)C(=O)[C@@H]23)cc1`, the AC50 in assay [9] was 33.7 µM (active).
Turning to `O=[N+]([O-])c1ccc(S(=O)(=O)Cc2ccccc2)c2nonc12`, in [7], the AC50 is 6.31 µM (inconclusive).
For `Cn1c2ccccc2c(=O)c2c(=O)n(C3CCCCC3)c(-c3cccs3)nc21`, the EC50 in assay [1] is 10.6 µM (active); in assay [2], > 150 µM (not active); in assay [10], 7.92 µM (active); in assay [11], 8.9 µM (active); in [3], 39.2 µM (active).
`Cc1cccc(NC(=O)CSc2nc(O)c3c(C)cc(C)nc3n2)c1`: the AC50 in [7] was 15.8 µM (inconclusive).
`COCCNc1ncnc2ccc(-c3cccc(OC)c3)cc12`: the AC50 in assay [6] was 2.51 µM (inconclusive); in assay [7], 39.8 µM (inconclusive).
On to `O=C(CSC1CC(=O)N(CC(c2ccccc2)c2ccccc2)C1=O)Nc1ccc(Cl)cc1` (stereo unspecified), for which the AC50 in assay [7] was 2 µM (inconclusive); in [8] it was 35.5 µM (inconclusive).
As to `Cc1nc2sccn2c(=O)c1S(=O)(=O)NCC(C)c1ccccc1` (stereo unspecified), the EC50 in [4] and in assay [5] was > 112 µM (not active) each time.
Turning to `CN1CCN(c2ncncc2-c2cccnc2)CC1`, the AC50 is 2.51 µM (inconclusive) in [7], 25.1 µM (inconclusive) in assay [8] and 12.6 µM (inconclusive) in assay [12].
In the case of `O=C1/C(=C/c2ccncc2)Oc2cc(OS(=O)(=O)c3ccccc3)ccc21`, the AC50 in [9] was 3.32 µM (active).
`CC1(C)CC(=O)C2=C(C1)N=C1c3ccccc3C(=O)C1C2c1ccc(Cl)cc1` (stereo unspecified): the EC50 in assay [1] is 6.07 µM (active); in assay [2], 14.8 µM (active); in assay [3], > 150 µM (not active).
For the molecule `Cc1ccc(NC(=O)C(C)Sc2nnc(C)n2C2CC2)cc1S(=O)(=O)N1CCOCC1` (stereo unspecified), the AC50 in assay [13] is > 260 µM (inconclusive).
As for `CC(C)C(=O)N1CCN(c2ccccc2NC(=O)c2cccc(Cl)c2)CC1`, the AC50 is 15.8 µM (inconclusive) in assay [7], 20 µM (inconclusive) in assay [8] and 12.6 µM (inconclusive) in assay [12].
Regarding `CC(C)N1CCN(Cc2ccc(OC3CCCC3)cc2)CC1CCO` (stereo unspecified), the AC50 in assay [9] is 3.58 µM (active).
`O=C(CSc1ccccc1)Nc1nc2ccccc2[nH]1`: the 50% effective concentration (EC50) in assay [4] and in [5] was > 112 µM (not active) each time.
For `COc1ncc2nc(-c3cccc(C#N)c3)c(=O)n(CCC#N)c2n1`, the values for the AC50 in assay [7] and in [8] were 15.8 µM (inconclusive) and 20 µM (inconclusive), respectively.
Take `Cc1noc(C)c1S(=O)(=O)N(CCc1ccccc1)Cc1ccccc1`: the EC50 in [1] is 68.6 µM (active); in assay [2], 21.7 µM (active); in assay [3], > 150 µM (not active).
Turning to `CN(C)c1nc(OCCNC(=O)Nc2ccc(Cl)cc2)nc(N(C)C)n1`, the figures for the EC50 in assay [4] and in [5] were 21.3 µM (active) and > 112 µM (not active), respectively.
Take `COC(=O)C1(Cc2ccccc2)C=C2C(=C(C)C(=O)C2C)CN1` (stereo unspecified): the AC50 is 39.8 µM (inconclusive) in assay [6], 15.8 µM (inconclusive) in assay [7], 10 µM (inconclusive) in assay [8] and 15.8 µM (inconclusive) in [12].
On to `COc1ccc2[nH]cc(CCNc3nc(-c4ccccc4CN(C)C)nc4ccccc34)c2c1`, for which the AC50 in assay [7] was 31.6 µM (inconclusive); in [8], 25.1 µM (inconclusive); in [12], 2 µM (inconclusive).
Take `CCN(CC(=O)NC1CCS(=O)(=O)C1)S(=O)(=O)c1ccccc1` (stereo unspecified): the EC50 in assay [4] and in assay [5] was > 112 µM (not active) in each case.
As for `Cc1nnc(SCC(=O)Nc2ccc(Br)cn2)nc1O`, the EC50 in assay [4] and in assay [5] was > 112 µM (not active) in each case.
As for `C[C@@H]1CC[C@H]2C(=O)N3[C@@H](CC[C@@H](C)[C@@H]3c3ccc(Br)cc3)C(=O)N2[C@H]1c1ccc(Br)cc1`, in assay [9], the concentration at half-maximal activity (AC50) was 3.04 µM (active).
As for `CCOC(=O)Nc1ccc(Cc2ccncc2)cc1`, the AC50 in assay [9] is 25.3 µM (active).
Turning to `CN1CCN(CC(=O)N2c3ccccc3Sc3cc4ccccc4cc32)CC1`, the AC50 in assay [7] is 3.16 µM (inconclusive); in assay [12] it was 3.98 µM (inconclusive).
Consider `COc1cccc(-c2ccc3ncnc(NCCNC(C)=O)c3c2)c1`, for which the AC50 in assay [7] was 39.8 µM (inconclusive).
For `C/C(=N\O)c1cccc[n+]1Cc1ccccc1`, the half-maximal activity concentration (AC50) in assay [6] was 0.1 µM (inconclusive); in [7], 3.98 µM (inconclusive).
Regarding `CCN(CC)c1nc(Nc2ccc([N+](=O)[O-])cc2)nc(N(CC)CC)n1`, the EC50 was 6.64 µM (active) in assay [1], > 150 µM (not active) in [2] and 15.7 µM (active) in [3].
As for `C=CCn1cc(/C=C/c2cc[n+](C)cc2)c2ccccc21`, the values for the EC50 in assay [14] and in assay [15] were 0.323 µM (active) and > 60 µM (not active), respectively. For the same molecule, in [13], the concentration at half-maximal activity (AC50) was 4.75 µM (active).
Take `Cc1ccc(C)n1-c1ccc(C(=O)Nc2ccccc2)cc1`: the AC50 in assay [13] is > 260 µM (inactive).
Regarding `O=C(NCc1nnc(SCC(=O)N2CCOCC2)o1)c1c(F)cccc1F`, the EC50 in assay [1], in assay [2] and in assay [3] was > 150 µM (not active) throughout.
Take `CN(C)C=O.O=C(c1cc(-c2ccccc2Cl)nc2ccccc12)N1CCN(c2ccccn2)CC1`: the AC50 in assay [13] is 3.9 µM (active).
Take `COc1ccc(NC(=O)c2ccc(COc3ccccc3Br)o2)c(OC)c1`: the AC50 in assay [9] is 2.2 µM (active).
